# Laboratory results: a melting point compilation (Tetko et al.; mined from patent text by program, amines drawn as free bases though some values may be those of a salt)
row,melting point,SMILES
1,105 to 108 °C,O=C(Nc1ccc(S(=O)(=O)c2ccccc2)cc1)C(O)(C(F)F)C(F)F
2,79 °C,C#CCN(C(=O)n1oc(C)c(Cl)c1=O)c1ccc(C)cc1
3,116 °C,O=S(=O)(c1ccc(F)cc1)N1CCCC1c1ccc(F)c(Cl)c1 (racemic)
4,199 to 202 °C,COc1ccc2[nH]c(SCc3nccc(N4CCCC4)n3)nc2c1
5,147 to 148 °C,COC(=O)c1c(C(=O)OC)c(-c2ccc(OC)c(OC)c2)c2sccc2c1O
6,218 to 219 °C,NS(=O)(=O)c1cc2c(cc1Cl)C(=O)N(CCN1CCOCC1)C2=O
7,144 to 146 °C,CC=CC=C[C@@H]1C[C@H](CC(=O)O)OC2(CCCCC2)O1 (relative stereo)
8,165 °C,COc1ccc(-c2cc(CO)c(=O)n(Cc3ccc(Cl)cc3)n2)cc1F
9,185 °C,CCC(C(=O)c1ccc(Cl)cc1)n1ncn(-c2cnc(N3CCN(c4ccc(OC)cc4)CC3)nc2)c1=O (stereo unspecified)
10,135 to 137 °C,O=C(O)CC[C@H]1O[C@@H](c2ccccc2Cl)c2cc(Cl)ccc2N(Cc2ccccc2)C1=O (relative stereo)
11,195 to 197 °C,NC(=O)C(Br)c1c(Cl)cc([N+](=O)[O-])cc1Cl (stereo unspecified)
12,99.5 to 100 °C,CC1(C)SCN(CCCCN2CCN(c3nc4ccccc4s3)CC2)C1=O
13,136 to 137 °C,COC(=O)NC(CCc1ccc(Br)cc1)C(=O)O (stereo unspecified)
14,146 to 147 °C,CC(C)(C)c1cc2c(c(C(C)(C)C)c1)OC(=O)C2c1ccc(F)cc1 (stereo unspecified)
15,117 to 118 °C,O=C(O)c1cn(-c2ccc(Cl)cc2)c2c(F)c(F)c(F)cc2c1=O
16,70 to 71 °C,CC(C)(C)OC(=O)C1C(C#CC(=O)OCC(Cl)(Cl)Cl)C1(C)C (stereo unspecified)
17,224 to 225 °C,NC(N)=NC(=O)Cn1c(Cl)ccc1Cl
18,245 to 247 °C,N=C(Nc1ccc(C(=O)O)cc1)Nc1nc(-c2ccccc2)cs1
19,64 to 65 °C,CCC(CC)(CO)CCCCS(N)(=O)=O
20,138 to 139 °C,O=Cc1ccc2ccnc(NC(=O)c3ccccc3)c2c1
21,118 to 119 °C,COc1ccc(Nc2ccc(O)cc2)c(C(C)=O)c1
22,78 to 80 °C,CC1CN(c2cccc(F)c2)N=C1N (stereo unspecified)
23,88 to 93 °C,COc1ccc(C(=O)N2CCC(N3C(=O)Cc4ccccc43)CC2)c(OC)c1
24,154 to 155 °C,Cc1noc(NS(=O)(=O)c2ccc(-c3ccccc3)cc2)c1C
25,147 to 148 °C,CS(=O)(=O)N(CCBr)N(S(C)(=O)=O)S(C)(=O)=O

row,melting point,SMILES
1,179 to 180 °C,O=C(O)C1=Cc2cc(C3CCCCC3)ccc2CC1
2,108 to 109 °C,CCCCCCCCCCCCC1=C(O)C(=O)NC1=O
3,218 to 220 °C,CC(=O)N1C(=CC(C#N)=C2OC(CO)CN2C)C(=O)c2ccccc21 (stereo unspecified)
4,63 to 66 °C,CCC1COc2ccccc2C(=O)C1=O (stereo unspecified)
5,194 °C,O=C(NC(=O)c1ccc(F)cc1Cl)Nc1ccc(C(F)(F)F)cc1F
6,140 to 141 °C,Nc1ccc(Br)cc1CS(=O)(=O)c1ccccc1
7,152 to 153 °C,COc1ccc(N2CCN(c3c(C)c(C)c4c(c3C)C(O)(Cc3ccccc3)C(C)(C)O4)CC2)cc1 (stereo unspecified)
8,> 300 °C,O=C(O)c1c2c(nc3ccc(F)cc13)-c1ccc(-c3ccc(F)cc3)cc1CC2
9,154 to 156 °C,Cc1ccc2c(c1O)NC(O)C1CCCN1C2=O (stereo unspecified)
10,108 to 110 °C,CCOC(=O)COc1ccc(C(=O)c2ccccc2O)c(Cl)c1Cl
11,112 to 113 °C,CCOC(=O)c1c(C)nn(C)c1S(N)(=O)=O
12,165 to 167 °C,CNc1nc2c(C)cccc2c2c1CCN2c1ccccc1C
13,88 to 89 °C,CN(CCOc1ccc([N+](=O)[O-])cc1)c1ccncc1
14,120 to 123 °C,"O=C(CCCN1CCNC1=O)N1CCC(C2c3ncc(Br)cc3CCc3cc(Cl)cc(Br)c32)CC1 (single isomer, unassigned; (+))"
15,71 to 72 °C,COC(=O)c1ccc(-c2cccc(OCc3ccc(COC(=O)c4ccccc4)c(COC(=O)c4ccccc4)c3)c2)cc1
16,> 300 °C,O=c1[nH]c2cc(Cl)cc(Cl)c2cc1Br
17,76 to 78 °C,Clc1ccc(C2Cc3cnc4[nH]ncc4c3-c3ccccc32)cc1Cl (stereo unspecified)
18,120 °C,Cc1c(-c2ccc(F)cc2)c(-c2ccc(S(N)(=O)=O)cc2)c2n1CCC2
19,206 to 209 °C,COc1ccc(COc2ccc(C(=O)C3=C(O)C(=O)N(c4ccc(C)nn4)C3c3ccc(OC(F)(F)F)cc3)cc2)cc1 (stereo unspecified)
20,142 to 143 °C,CC1(C)C=C(c2ccc(C(=O)N3Cc4cccn4Cc4ccccc43)cc2)CC(C)(C)C1
21,175 °C,CCOC(=O)C(CC)Sc1nc2c([nH]1)c(=O)n(C)c(=O)n2C (stereo unspecified)
22,111 to 113 °C,CCOC(=O)C(=O)Nc1cccc([N+](=O)[O-])c1C#N
23,150 to 152 °C,CCOc1ccccc1CNc1c(C#N)ccnc1C(N)=O
24,167 to 174 °C,O=C(c1ccco1)N1CCN(Cc2ccc(-c3cc4ncnc(Nc5ccc6[nH]ccc6c5)c4s3)cc2)CC1
25,127 to 129 °C,COc1ccc(CCNCC(O)COc2ccc(-c3nc(-c4cccs4)c[nH]3)cc2)cc1OC (stereo unspecified)

row,melting point,SMILES
1,202 to 204 °C,CN(C)c1ccc(CN[C@@H](C(=O)O)[C@H](O)[C@H](Cc2ccccc2)NC(=O)OC(C)(C)C)cc1
2,162 to 165 °C,CC(=NCCO)C1CCC2C3CCC4CC(O)C(N5CCOC(C)C5)CC4(C)C3CCC12C (stereo unspecified)
3,217 to 218 °C,CCOCCOC(=O)C(=O)Nc1nc(-c2cc3ccc(O)cc3oc2=O)cs1
4,126 °C,O=C(NCCCCC1CCSS1)n1cc(F)c(=O)[nH]c1=O (stereo unspecified)
5,153 to 155 °C,CNC(=O)c1cc(-c2ccc(OC)c(F)c2)nn(CC(C)C)c1=O
6,150 to 152 °C,C=C(C)C(=O)NCCC(=O)Nc1cc(Cl)c(C)c(Cl)c1O
7,263 to 265 °C,COC(=O)c1cccc2[nH]c(=O)c(C(=O)c3ccccc3)c(O)c12
8,208 to 211 °C,CN1CCN(CCCNc2ncc3cc(-c4c(Cl)cccc4Cl)c(N)nc3n2)CC1
9,176 to 178 °C,COc1cccc(OC)c1C(=O)Nc1cc(C(C)(C)C)n[nH]1
10,75 to 77 °C,COC(=O)c1ccnc(N2CCN(CC3CC3)C2=O)c1
11,80 °C,CCOC(=O)CC1NCCN(CCc2c[nH]c3ccccc23)C1=O (stereo unspecified)
12,282 °C,Oc1nc(-c2ccc(Cl)cc2)nc2c1CCC2
13,136 to 138 °C,CC(C)C(=O)NS(=O)(=O)c1cccc([N+](=O)[O-])c1
14,91 to 93 °C,CCOC(=O)C=CCOc1ccc(C23CC4CC(CC(C4)C2)C3)cc1
15,105 to 107 °C,CCOc1cc(C(CC(=O)O)N2Cc3cccc(NC(C)=O)c3C2=O)ccc1OC(F)F (stereo unspecified)
16,101 to 103 °C,COc1cc(C(F)(F)F)nc2c(N3CCC4(CC3)OCCO4)ccc(F)c12
17,147 to 148 °C,Cc1ccc(NC(=O)c2cc(Cl)ccc2NCC2CCN(C(C)C)CC2)nc1
18,108 to 111 °C,Cc1cc(C)c(-n2ccc3c(OC(C)C)nn(C)c(=O)c32)c(C)c1
19,99 to 100 °C,COC(=O)c1cc(N)ccc1OC(C)=O
20,236 to 238 °C,NS(=O)(=O)c1cscc1C(=O)Cl
21,131 to 133 °C,Nc1cc(Cl)ccc1C(=O)NO
22,282 to 284 °C,COc1nc2ncccc2c2nc(SCc3ccccc3)nn12
23,125 °C,O=c1[nH]nc(OCC2c3ccccc3-c3ccccc32)o1
24,139 to 141 °C,Cc1ccc(NC(=O)C#Cc2ccccc2)cc1
25,120 to 121 °C,CCOC(=O)CCCC(=O)c1ccc(-c2ccc(C)cc2)s1

row,melting point,SMILES
1,228 to 230 °C,COc1ccc(-c2cnn3c(N)c(-c4cccc(Cl)c4)c(CF)nc23)cc1OC
2,64 to 65 °C,O=C1CC2(CC=CC2)CC(=O)O1
3,95 to 96 °C,CC(C)(C)OC(=O)N1C[C@H](OS(C)(=O)=O)C[C@H]1CO
4,233 to 234 °C,O=c1cc2c(nn1-c1ccc(Cl)cc1)-c1ccccc1S(=O)CC2 (stereo unspecified)
5,234 to 236 °C,O=c1c(-c2ccccc2)c(Cn2cnc3c(Cl)ncnc32)oc2ccc(Br)cc12
6,165 to 166 °C,CCOC(=O)C1=C(C)NC(C)=C(C(=O)OCC)C1c1ccccc1/C=C/C(=O)OC1CCCCC1C (stereo unspecified)
7,205 to 207 °C,CCCCOc1nc(N)c2[nH]c(=O)n(CCSc3cccc(CC(=O)O)c3)c2n1
8,181 to 183 °C,CC(C)NC(=O)c1ccc(-c2ccc3nnn(Cc4ccc5ncccc5c4)c3n2)cc1
9,129 °C,CN(C)S(=O)(=O)N1CCNC1=O
10,233 to 237 °C,C(=Cc1ccc2nc(-c3ccccc3)oc2c1)c1ccc(-c2nc3ccccc3o2)cc1
11,142 to 144 °C,CCOCc1nc2c(N)nc3cc(OCCCN4CCCC4=O)ccc3c2n1CCCCN1CCCS1(=O)=O
12,> 250 °C,Nc1nc(N)c2c(CCCc3ccc(C(=O)N[C@@H](CCC(=O)O)C(=O)O)cc3)cnc-2[nH]1
13,104 to 105 °C,COC(=O)Cc1ccc2c(c1)CCN2C(C)=O
14,148 to 149 °C,c1ccc(-c2c[nH]c3ccccc23)cc1
15,166 to 170 °C,CC(=O)N[C@@H](CC(=O)c1ccc2oc3ccccc3c2c1)C(=O)O
16,140 to 142 °C,COc1ccc(C#Cc2ccc(OC)cc2)cc1
17,274 to 275 °C,Cc1cc2c(cc1C13CC1CCC3=Cc1ccc(C(=O)O)cc1)C(C)(C)CCC2(C)C (stereo unspecified)
18,163 to 165 °C,N#Cc1cn(-c2c(Cl)cc(C(F)(F)F)cc2Cl)nc1[N+](=O)[O-]
19,102 to 105 °C,CC(C)C(O)(C#Cc1ccsc1)c1cncnc1 (stereo unspecified)
20,199 to 202 °C,CC(=O)Nc1cc2c(cc1[N+](=O)[O-])N(C(C)=O)CCO2
21,104 °C,COCCc1nc2c(N)nc3ccccc3c2n1CCOCCCc1ccccc1
22,143 to 145 °C,COc1c(O)c([N+](=O)[O-])cc(C(=O)c2ccccc2)c1Cl

row,SMILES,melting point
1,COP(=S)(OC)Oc1nsc(-c2ccccc2)c1C#N,40 °C
2,CC1(C)NC(=O)N(c2ccc([N+](=O)[O-])c(C(F)(F)F)c2)C1=N,168 °C
3,CC(C)(C)OC(=O)C=CC1C(C(=O)OC(C#N)c2ccc(F)c(Oc3ccccc3)c2)C1(C)C (stereo unspecified),114 °C
4,O=C(O)c1cn(CC2CCCCC2)c2cc(Cl)ccc12,170 to 172 °C
